Measured values taken from patent publication US6242173A, “Immunoassays for catalytically-active, serine proteases” (University of Vermont and State Agriculatural College, priority 1992, dated 2001).
“Also recorded” adds a separate entry of the source.

Key:
tissue factor = tissue factor (Homo sapiens, UniProt P13726); assay: Blocking of tissue factor, tissue factor specific activity; type: biochemical
bovine Xa = bovine Xa (Bos taurus, UniProt P00743); assay: Fluorophore-protein ratios by absorbance; type: binding; settings: isolated labeled protein
Chain of bovine Xa (P00743 234-492 limits assumed): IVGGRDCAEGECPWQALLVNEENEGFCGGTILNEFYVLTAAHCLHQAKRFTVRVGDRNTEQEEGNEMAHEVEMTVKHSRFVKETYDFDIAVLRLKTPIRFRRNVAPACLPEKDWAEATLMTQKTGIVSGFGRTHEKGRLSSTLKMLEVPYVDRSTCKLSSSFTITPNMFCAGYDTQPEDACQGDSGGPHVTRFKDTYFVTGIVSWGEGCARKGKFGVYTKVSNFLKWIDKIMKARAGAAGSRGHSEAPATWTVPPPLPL
Chain of bovine Xa (P00743 41-180 partner limits assumed): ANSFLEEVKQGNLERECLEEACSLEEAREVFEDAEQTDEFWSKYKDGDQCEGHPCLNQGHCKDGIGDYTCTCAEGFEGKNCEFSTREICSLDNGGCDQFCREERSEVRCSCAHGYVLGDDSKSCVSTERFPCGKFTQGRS

Human Xa [1] = biological target: T1, Human Xa (Homo sapiens, UniProt P00742); assay: Fluorophore-protein ratios by absorbance; type: binding; settings: isolated labeled protein
T1 construct: from tissue; host or cells: fresh frozen human plasma
T1 sequence (P00742 235-488 limits assumed): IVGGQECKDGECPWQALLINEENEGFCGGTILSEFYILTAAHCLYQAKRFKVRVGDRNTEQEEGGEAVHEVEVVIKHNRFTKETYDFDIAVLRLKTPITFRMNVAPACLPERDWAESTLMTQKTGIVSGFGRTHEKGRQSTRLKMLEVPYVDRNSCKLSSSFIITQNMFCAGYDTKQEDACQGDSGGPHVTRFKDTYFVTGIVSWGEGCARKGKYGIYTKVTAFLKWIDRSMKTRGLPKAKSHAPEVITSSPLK
T1 sequence (P00742 41-179 partner limits assumed): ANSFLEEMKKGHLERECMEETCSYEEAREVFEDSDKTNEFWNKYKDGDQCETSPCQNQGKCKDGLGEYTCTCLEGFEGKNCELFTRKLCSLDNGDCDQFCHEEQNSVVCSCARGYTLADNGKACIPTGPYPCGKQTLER

[2] = tested on: tissue plasminogen activator (tTPA) (1 and 2 chain); assay: Screening of protein/BC-PPACK reactions, avidin-biotin-peroxidase blot; type: binding, human; settings: 10 fold molar excess twice, overnight
Chain of tissue plasminogen activator (tTPA) (1 and 2 chain) (P00750 311-562 limits assumed): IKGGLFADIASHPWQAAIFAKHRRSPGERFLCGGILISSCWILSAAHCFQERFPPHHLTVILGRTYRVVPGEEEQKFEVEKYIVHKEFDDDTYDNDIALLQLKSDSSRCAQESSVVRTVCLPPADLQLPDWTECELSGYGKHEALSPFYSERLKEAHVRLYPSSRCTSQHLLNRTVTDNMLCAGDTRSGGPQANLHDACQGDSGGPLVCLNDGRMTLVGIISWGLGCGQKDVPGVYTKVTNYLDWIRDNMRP
Protocol: (§1) Samples of purified enzymes, zymogens, or enzyme-zymogen mixtures were treated with BC-PPACK as follows: 10-30 μg samples of protein at 0.5 mg/mL in Hepes (20 mM)/NaCl (150 mM) pH=7.4 was reacted with 10 fold molar excess of BC-PPACK for 30 minutes, followed by a second 10 fold aliquot and overnight incubation at room temperature. Samples were then reduced with 2-mercapto-ethanol and prepared for PAGE gel electrophoresis either on 12×12 cm or PhastGel systems. After electrophoresis, the gels were blotted to nitrocellulose using tris/glycine methanol transfer buffer. The nitrocellulose was then blocked with TWEEN reagent, washed with tris/glycine and reacted with avidin-biotin-peroxidase. Development with 4-chloronapthtalene visualized the biotinylated proteins.
Plasminogen was isolated by passing thawed, aprotinin treated plasma over lysine-Sepharose and eluting the bound plasminogen with ε-aminocaproic acid (ECAC) (Castellino, F. J. and Powell, J. R. (1980) Methods Enzymol. 80:365-378). A second pass over the lysine SEPHAROSE gel, followed by separation from aprotinin on SEPHAROSE gel G-100 gave plasminogen which was homogeneous when evaluated by gel electrophoresis. Plasmin was prepared from plasminogen by treatment with 1:200 (weight:weight) of urokinase in Hepes/saline. Tissue plasminogen activator (tPA) was recombinant human tPA (Genentech) and contained both single chain and two chain forms. Urokinase was a generous gift from Dr. David Stump and was two chain.

factor VIIa = biological target: T2, factor VIIa (Homo sapiens, UniProt P08709); assay: Removal of active enzyme from zymogen with biotinylated chloromethyl ketone and avidin matrix; settings: human factor VII containing factor VIIa; listed as BioCap-YGRck
T2 construct: Human factor VII was converted to VIIa by incubation for 1 hour with a 0.2% (w/w) aliquot of human Xa; from tissue; host or cells: fresh frozen human plasma; VII converted to VIIa with human Xa, or VIIa already present in the isolate
T2 sequence (P08709 213-466 limits assumed): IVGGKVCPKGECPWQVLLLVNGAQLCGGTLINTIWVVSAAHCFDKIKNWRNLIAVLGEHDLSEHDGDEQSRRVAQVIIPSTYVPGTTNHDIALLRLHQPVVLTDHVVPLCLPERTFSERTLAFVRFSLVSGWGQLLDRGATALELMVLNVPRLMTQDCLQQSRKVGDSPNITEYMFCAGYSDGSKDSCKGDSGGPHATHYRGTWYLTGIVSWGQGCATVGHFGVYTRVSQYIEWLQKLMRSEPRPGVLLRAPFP
T2 sequence (P08709 61-212 partner limits assumed): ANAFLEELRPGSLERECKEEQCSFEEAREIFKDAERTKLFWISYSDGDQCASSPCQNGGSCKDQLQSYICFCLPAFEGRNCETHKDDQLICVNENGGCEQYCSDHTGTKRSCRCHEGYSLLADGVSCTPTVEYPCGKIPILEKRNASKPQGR

activated human plasma = assay: Reaction of activated human plasma with BC-YGR-CK, blot; settings: thromboplastin and Ca+2 (4 mM) activated plasma, timed aliquots, final CK concentration 1.2 μM
Protocol: Normal human plasma (200 μL) at 37° C. was activated with thromboplastin (10 μL) and Ca^+2 (4 mM). At timed intervals, 20 uL aliquots were removed and added to 2 μL aliquots of […] BC-YGR-CK (final CK concentration was 1.2 μM). A clot was observed after 122 seconds. The samples were then run on PhastGel electrophoresis and blotted to nitrocellulose.

hVII = biological target: T3, hVII (Homo sapiens, UniProt P08709); assay: Screening of protein/BC-PPACK reactions, avidin-biotin-peroxidase blot; type: binding; settings: zymogen; 10 fold molar excess twice, overnight
T3 construct: Except as noted, all proteins were isolated from fresh frozen human plasma; from tissue; host or cells: fresh frozen human plasma
T3 sequence (P08709 61-466): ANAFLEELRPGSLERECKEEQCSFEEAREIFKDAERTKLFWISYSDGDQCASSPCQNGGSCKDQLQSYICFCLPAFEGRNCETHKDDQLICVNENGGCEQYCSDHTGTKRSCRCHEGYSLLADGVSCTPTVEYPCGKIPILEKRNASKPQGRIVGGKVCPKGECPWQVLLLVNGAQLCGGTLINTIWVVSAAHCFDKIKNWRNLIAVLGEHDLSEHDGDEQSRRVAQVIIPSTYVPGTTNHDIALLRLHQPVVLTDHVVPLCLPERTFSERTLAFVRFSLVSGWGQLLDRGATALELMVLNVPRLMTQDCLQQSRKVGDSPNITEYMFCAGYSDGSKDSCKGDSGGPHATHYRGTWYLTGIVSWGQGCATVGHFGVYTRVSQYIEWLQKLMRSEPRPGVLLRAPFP
Protocol: as §1

factor Xa (hXa) = biological target: T4, factor Xa (hXa) (Homo sapiens, UniProt P00742); assay: as above; type: binding; settings: 10 fold molar excess twice, overnight
T4 construct: from tissue; host or cells: fresh frozen human plasma
T4 sequence (P00742 235-488 limits assumed): as the sequence (P00742 235-488 limits assumed) above
T4 sequence (P00742 41-179 partner limits assumed): as the sequence (P00742 41-179 partner limits assumed) above
Protocol: as §1

factor VIIa (hVIIa) = biological target: T5, factor VIIa (hVIIa) (Homo sapiens, UniProt P08709); assay: as above; type: binding; settings: 10 fold molar excess twice, overnight
T5 construct: Human factor VII was converted to VIIa by incubation for 1 hour with a 0.2% (w/w) aliquot of human Xa; from tissue; host or cells: fresh frozen human plasma; VII converted to VIIa with human Xa, or VIIa already present in the isolate
T5 sequence (P08709 213-466 limits assumed): T2 sequence (P08709 213-466 limits assumed)
T5 sequence (P08709 61-212 partner limits assumed): T2 sequence (P08709 61-212 partner limits assumed)
Protocol: as §1

hX = biological target: T6, hX (Homo sapiens, UniProt P00742); assay: as above; type: binding; settings: zymogen; 10 fold molar excess twice, overnight
T6 construct: Except as noted, all proteins were isolated from fresh frozen human plasma; from tissue; host or cells: fresh frozen human plasma
T6 sequence (P00742 183-488 limits assumed): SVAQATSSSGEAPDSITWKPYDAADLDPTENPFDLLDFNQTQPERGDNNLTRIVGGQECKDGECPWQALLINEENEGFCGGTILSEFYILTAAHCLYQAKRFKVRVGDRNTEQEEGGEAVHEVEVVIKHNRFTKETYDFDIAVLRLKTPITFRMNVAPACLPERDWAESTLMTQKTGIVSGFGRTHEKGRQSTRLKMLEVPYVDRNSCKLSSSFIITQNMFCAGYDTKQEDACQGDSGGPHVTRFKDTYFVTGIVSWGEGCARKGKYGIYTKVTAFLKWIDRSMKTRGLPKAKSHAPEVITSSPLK
T6 sequence (P00742 41-179 partner limits assumed): as the sequence (P00742 41-179 partner limits assumed) above
Protocol: as §1

hII = biological target: T7, hII (Homo sapiens, UniProt P00734); assay: as above; type: binding; settings: zymogen; 10 fold molar excess twice, overnight
T7 construct: Except as noted, all proteins were isolated from fresh frozen human plasma; from tissue; host or cells: fresh frozen human plasma
Protocol: as §1

thrombin (hIIa) = biological target: T8, thrombin (hIIa) (Homo sapiens, UniProt P00734); assay: as above; type: binding; settings: 10 fold molar excess twice, overnight
T8 construct: from tissue; host or cells: fresh frozen human plasma
Protocol: as §1

thrombin = biological target: T9, thrombin (Homo sapiens, UniProt P00734); assay: Blocking of the reaction of thrombin with synthetic substrate S2238; type: biochemical; settings: solution in 1.0 mM HCl
T9 construct: from tissue; host or cells: fresh frozen human plasma
Protocol: FPRck.2HCl (Calbiochem) (5.0 mg, […]) was dissolved in methanol (1.0 mL) and treated with 2,6-dansyl chloride (Molecular Probes) (2.6 mg, 9.5 μmoles) in DMF (1.0 mL). The solution was mixed and treated with 4-methylmorpholine (20 μL, 16 μmoles). After 20 minutes at 25° C., the reaction was stopped by addition of 1.0 M HCl (100 μL) and the mixture was applied directly to a SEPHADEX LH-20 column (1×30 cm, in methanol). The elution was followed by fluorescence, A280, Sakaguchi stain and thin layer chromatography. The product appeared as a single fluorescent, Sakaguchi positive spot Rf =0.14 (2:1 chloroform:methanol on Bakerflex silica gel). The pooled sample was evaporated to an oil and taken up in 1.0 mM HCl. […] The solution was lyophilized to an oil which was taken up in 10.0 mM HCl (3.8 mL) and frozen. Final concentration (determined by A360) was 1.0 mM. Yield was 3.8 μmoles or 40%.
Factor Xa: In a one mL cuvette, 22.5 μM S2222 in Hepes/saline pH=7.4 was treated with 1-10 μL of the factor Xa preparation. The mixture was stirred briefly and the absorbance at 405 nm followed in a Cary 219 UV/visible spectrophotometer. The rate was taken for the initial linear phase. Similar methods were used for thrombin (S2238), plasmin (S2251) and tPA (S2238). Hemker, H. C. (1983) in Handbook of Synthetic Substrates: For the Coagulation and Fibrinolytic Systems. Martinus Nijhogg Publishers, Boston.

avidin = avidin (Gallus gallus, UniProt P02701); assay: Avidin-biotin interaction (fluorescein-avidin, avidin-acrylic, avidin-peroxidase blotting); settings: free compound, column fractions in 1.0 mM HCl
Chain of avidin (P02701 25-152): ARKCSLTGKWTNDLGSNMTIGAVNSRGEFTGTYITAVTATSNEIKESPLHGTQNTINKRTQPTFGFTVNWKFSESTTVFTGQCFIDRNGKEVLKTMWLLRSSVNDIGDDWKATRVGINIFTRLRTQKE

hPg = biological target: T10, hPg (Homo sapiens, UniProt P00747); assay: Screening of protein/BC-PPACK reactions, avidin-biotin-peroxidase blot; type: binding; settings: zymogen; 10 fold molar excess twice, overnight
T10 construct: Plasminogen was isolated by passing thawed, aprotinin treated plasma over lysine-Sepharose; from tissue; host or cells: human plasma (lysine-Sepharose)
T10 sequence (P00747 20-810 limits assumed): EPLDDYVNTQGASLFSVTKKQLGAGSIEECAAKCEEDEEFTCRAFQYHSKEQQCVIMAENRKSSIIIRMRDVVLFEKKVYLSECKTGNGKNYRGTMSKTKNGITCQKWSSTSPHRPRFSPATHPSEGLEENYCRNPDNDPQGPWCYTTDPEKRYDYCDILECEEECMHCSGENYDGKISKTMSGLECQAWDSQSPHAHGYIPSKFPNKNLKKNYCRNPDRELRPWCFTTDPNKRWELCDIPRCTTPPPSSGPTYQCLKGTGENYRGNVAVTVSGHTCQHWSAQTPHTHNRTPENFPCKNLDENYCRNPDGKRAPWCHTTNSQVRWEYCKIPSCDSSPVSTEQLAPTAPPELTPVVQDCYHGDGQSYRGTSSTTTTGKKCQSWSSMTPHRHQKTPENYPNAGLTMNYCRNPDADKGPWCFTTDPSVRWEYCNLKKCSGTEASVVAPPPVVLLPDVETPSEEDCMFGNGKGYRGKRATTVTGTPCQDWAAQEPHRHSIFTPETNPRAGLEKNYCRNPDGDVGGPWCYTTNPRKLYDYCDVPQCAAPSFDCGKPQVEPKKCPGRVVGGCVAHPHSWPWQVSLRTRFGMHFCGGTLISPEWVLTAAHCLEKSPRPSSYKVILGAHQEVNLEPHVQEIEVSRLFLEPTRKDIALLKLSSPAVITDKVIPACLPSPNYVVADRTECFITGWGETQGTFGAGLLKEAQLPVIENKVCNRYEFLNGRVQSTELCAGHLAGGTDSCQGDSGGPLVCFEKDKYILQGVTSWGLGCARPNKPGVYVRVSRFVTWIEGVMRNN
Protocol: as §1

plasmin (hPm) = biological target: T11, plasmin (hPm) (Homo sapiens, UniProt P00747); assay: as above; type: binding; settings: 10 fold molar excess twice, overnight
T11 construct: Plasmin was prepared from plasminogen by treatment with 1:200 (weight:weight) of urokinase; from tissue; host or cells: human plasma (lysine-Sepharose)
T11 sequence (P00747 581-810 limits assumed): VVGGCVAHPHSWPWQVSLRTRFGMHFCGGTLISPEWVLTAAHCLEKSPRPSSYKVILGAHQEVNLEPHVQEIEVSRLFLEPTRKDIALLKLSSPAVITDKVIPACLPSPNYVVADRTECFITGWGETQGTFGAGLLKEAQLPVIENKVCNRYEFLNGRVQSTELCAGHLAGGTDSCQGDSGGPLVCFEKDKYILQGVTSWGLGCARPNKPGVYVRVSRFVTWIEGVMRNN
T11 sequence (P00747 97-580 partner limits assumed): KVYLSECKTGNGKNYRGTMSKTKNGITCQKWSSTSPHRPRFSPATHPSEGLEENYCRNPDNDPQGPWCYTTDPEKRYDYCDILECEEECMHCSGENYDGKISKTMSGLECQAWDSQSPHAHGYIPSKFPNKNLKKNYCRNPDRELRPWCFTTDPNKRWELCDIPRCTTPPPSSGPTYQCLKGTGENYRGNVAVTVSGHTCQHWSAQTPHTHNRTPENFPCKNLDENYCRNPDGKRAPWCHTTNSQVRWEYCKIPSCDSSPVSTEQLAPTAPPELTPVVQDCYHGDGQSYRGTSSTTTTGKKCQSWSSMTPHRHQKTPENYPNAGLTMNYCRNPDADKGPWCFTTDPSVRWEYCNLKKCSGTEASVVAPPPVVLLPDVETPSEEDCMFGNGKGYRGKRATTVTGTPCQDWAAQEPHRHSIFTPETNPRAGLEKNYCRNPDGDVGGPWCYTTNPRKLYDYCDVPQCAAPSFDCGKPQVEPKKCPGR
Protocol: as §1

Human Xa [3] = biological target: T1, Human Xa; assay: Reaction of Human Xa with BC-PPACK, residual activity vs. S2222; type: biochemical

Chain of tissue factor (P13726 33-295): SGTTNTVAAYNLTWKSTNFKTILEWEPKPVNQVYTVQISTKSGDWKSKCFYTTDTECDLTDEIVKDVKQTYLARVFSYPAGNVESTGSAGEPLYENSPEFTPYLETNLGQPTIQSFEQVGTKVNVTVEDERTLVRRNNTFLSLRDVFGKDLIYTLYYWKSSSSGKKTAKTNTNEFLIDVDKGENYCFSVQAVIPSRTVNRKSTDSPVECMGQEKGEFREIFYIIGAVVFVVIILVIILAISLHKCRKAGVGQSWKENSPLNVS

Molecule	biotinylated protein on blot [2]	biotinylated protein on blot (hVII)	biotinylated protein on blot (factor Xa (hXa))	biotinylated protein on blot (factor VIIa (hVIIa))	biotinylated protein on blot (hX)	biotinylated protein on blot (hII)	biotinylated protein on blot (thrombin (hIIa))	further results
O=C(O)c1cc[c]([Hg][Cl])cc1 [p-chloromercuribenzoate]								decrease of specific activity of tissue factor (tissue factor; 100 µM, 2 hours): 10-20%
NC(N)=NCCC[C@H](NC(=O)[C@@H]1CCCN1C(=O)[C@H](N)Cc1ccccc1)C(=O)CCl [FPRck]								decrease of specific activity of tissue factor (tissue factor; 1.0 mM, 24 hours): 10-20%
5 (and 6) Carboxylfluoresceinyl-L-glutamylglycyl-L-arginine chloromethyl ketone hydrochloride [Fluoresceinyl-EGRCk]								Fluorophore/Protein (bovine Xa): 1.02 mole/mole; Fluorophore/Protein (Human Xa [1]): 1.06 mole/mole
Biotinyl-ε-aminocaproyl-L-tyrosylglycyl-L-arginine chloromethyl ketone [BC-YGR-CK]	Identical results	Identical results	Identical results	Identical results	Identical results	Identical results	Identical results	factor VIIa remaining after treatment and avidin matrix, gel analysis (factor VIIa): no factor VIIa remained; also recorded: no contamination with factor VIIa; biotinylated proteins on blot of activated plasma (activated human plasma): several biotinylated proteins
CN(C)c1ccc2cc(S(=O)(=O)N[C@H](Cc3ccccc3)C(=O)N3CCC[C@H]3C(=O)N[C@@H](CCCNC(=N)N)C(=O)CCl)ccc2c1.Cl [2,6-dansyl-FPRck.HCl, 6-Dimethylaminonapthalene-2-sulfonyl-D-phenylalanyl-L-prolyl-L-arginine chloromethyl ketone hydrochloride]								blocking of reaction of thrombin with S2238 (thrombin): rapidly blocked
Biotinyl-D-phenylalanyl-L-prolyl-L-arginine Chloromethyl Ketone [Biotinyl-PPACK]	none of the proteins showed a positive blot	none of the proteins showed a positive blot	none of the proteins showed a positive blot	none of the proteins showed a positive blot	none of the proteins showed a positive blot	none of the proteins showed a positive blot	none of the proteins showed a positive blot	enhancement of the fluorescence of fluorescein-avidin (avidin): positive; biotinylated protein on blot (hPg): none of the proteins showed a positive blot; biotinylated protein on blot (plasmin (hPm)): none of the proteins showed a positive blot
biotinyl-ε-aminocaproyl-D-phenylalanyl-L-prolyl-L-arginine chloromethyl ketone [BC-PPACK]	positive	No reaction	positive	positive	No reaction	No reaction	positive	relative activity (vs. S2222) (Human Xa [3]; 0.46 equivalents added): 0.62; relative activity (vs. S2222) (Human Xa [3]; 0.92 equivalents added): 0.13; relative activity (vs. S2222) (Human Xa [3]; 1.38 equivalents added): 0.01; relative activity (vs. S2222) (Human Xa [3]; 1.84 equivalents added): 0.00; relative activity (vs. S2222) (Human Xa [3]; 2.76 equivalents added): 0.00; biotinylated protein on blot (hPg): No reaction; biotinylated protein on blot (plasmin (hPm)): positive
